The record followed here is US20250179061A1 (SIRONAX LTD., priority 2022, published 2025).

The assay deals with HT-29 cells. The assay is described as follows: HT-29 necroptosis cell viability assay (TNF-α/SMAC mimetic/zVAD-FMK, CellTiter-Glo). The assay is classed as cell-based. Conditions: Homo sapiens, HT-29, HT-29 necroptosis cell viability assay; class symbols for IC50; read-out: Activity. The method in brief: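 Necroptosis was triggered by TNF-α (10 ng/ml), SMAC mimetic (6 μM) and zVAD-FMK (10 μM) in serum-free medium during 20 h compound exposure (10 concentrations, threefold steps) of HT-29 cells. IC50 from duplicate dose-responses uses CellTiter-Glo ATP luminescence as viability read-out.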

For the molecule `O=C(CC1CC1)Nc1cc(Oc2ccc(-n3ncn(Cc4c(F)cccc4F)c3=O)cc2)ccn1` [Example 520, 2-cyclopropyl-N-[4-[4-[4-[(2,6-difluorophenyl)methyl]-5-oxo-1,2,4-triazol-1-yl]phenoxy]-2-pyridyl]acetamide], the IC50 is 100 to 1000 nM. Take `CC(=O)Nc1cc(Oc2ccc(-n3ncn(Cc4c(F)cccc4F)c3=O)cc2)ccn1` [Example 521, N-[4-[4-[4-[(2,6-difluorophenyl)methyl]-5-oxo-1,2,4-triazol-1-yl]phenoxy]-2-pyridyl]acetamide]: the IC50 fell in the range of 100 to 1000 nM.

`O=C1CC(n2ncn(Cc3ccccc3)c2=O)CCN1Cc1ccccc1` (centres unmarked) [Example 522, 1-benzyl-4-(4-benzyl-5-oxo-4,5-dihydro-1H-1,2,4-triazol-1-yl)piperidin-2-one]: the IC50 was more than 10000 nM. For the molecule `O=c1n(Cc2c(F)cccc2F)cnn1-c1ccc(Oc2ccnc(NC3CC3)c2)cc1` [Example 523, 2-(4-((2-(cyclopropylamino)pyridin-4-yl)oxy)phenyl)-4-(2,6-difluorobenzyl)-2,4-dihydro-3H-1,2,4-triazol-3-one], the IC50 was in the range of 100 to 1000 nM.

In the case of `O=c1n(Cc2c(F)cccc2F)cnn1-c1ccc(Oc2ccnc(NCC3CC3)c2)cc1` [Example 524, 2-(4-((2-((cyclopropylmethyl)amino)pyridin-4-yl)oxy)phenyl)-4-(2,6-difluorobenzyl)-2,4-dihydro-3H-1,2,4-triazol-3-one], the IC50 is less than 100 nM. On to `O=c1n(Cc2c(F)cccc2F)cnn1-c1ccc(Oc2ccnc(N3CCCC3)c2)cc1` [Example 525, 4-(2,6-difluorobenzyl)-2-(4-((2-(pyrrolidin-1-yl)pyridin-4-yl)oxy)phenyl)-2,4-dihydro-3H-1,2,4-triazol-3-one], for which the IC50 lay within 100 to 1000 nM. Next, `O=c1n(Cc2c(F)cccc2F)cnn1-c1ccc(Oc2ccnc(N3CCOCC3)c2)cc1` [Example 526, 4-(2,6-difluorobenzyl)-2-(4-((2-morpholinopyridin-4-yl)oxy)phenyl)-2,4-dihydro-3H-1,2,4-triazol-3-one]: 1000 to 10000 nM; `O=c1n(Cc2c(F)cccc2F)cnn1-c1ccc(Oc2ccnc(N3CC4(COC4)C3)c2)cc1` [Example 527, 2-(4-((2-(2-oxa-6-azaspiro[3.3]heptan-6-yl)pyridin-4-yl)oxy)pheny)-4-(2,6-difluorobenzyl)-2,4-dihydro-3H-1,2,4-triazol-3-one]: 100 to 1000 nM; `CCC1(Nc2cc(Oc3ccc(-n4ncn(Cc5c(F)cccc5F)c4=O)cc3)ccn2)CC1` [Example 528, 4-(2,6-difluorobenzyl)-2-(4-((2-((1-ethylcyclopropyl)amino)pyridin-4-yl)oxy)phenyl)-2,4-dihydro-3H-1,2,4-triazol-3-one]: 100 to 1000 nM.

For the molecule `O=c1n(Cc2c(F)cccc2F)cnn1-c1ccc(Oc2ccnc(N3CCCCC3)c2)cc1` [Example 529, 4-(2,6-difluorobenzyl)-2-(4-((2-(piperidin-1-yl)pyridin-4-yl)oxy)phenyl)-2,4-dihydro-3H-1,2,4-triazol-3-one], the IC50 fell in the range of 100 to 1000 nM. Regarding `O=c1n(Cc2c(F)cccc2F)cnn1-c1ccc(Oc2ccnc(NC3CC4(COC4)C3)c2)cc1` [Example 530, 2-(4-((2-((2-oxaspiro[3.3]heptan-6-yl)amino)pyridin-4-yl)oxy)phenyl)-4-(2,6-difluorobenzyl)-2,4-dihydro-3H-1,2,4-triazol-3-one], the IC50 lay within 100 to 1000 nM.

Turning to `CC1(Nc2cc(Oc3ccc(-n4ncn(Cc5c(F)cccc5F)c4=O)cc3)ccn2)COC1` [Example 531, 4-(2,6-difluorobenzyl)-2-(4-((2-((3-methyloxetan-3-yl)amino)pyridin-4-yl)oxy)phenyl)-2,4-dihydro-3H-1,2,4-triazol-3-one], the IC50 is more than 10000 nM.

With `CC1(Nc2cc(Oc3ccc(-n4ncn(Cc5c(F)cccc5F)c4=O)cc3)ccn2)CC1` [Example 532, 4-(2,6-difluorobenzyl)-2-(4-((2-((1-methylcyclopropyl)amino)pyridin-4-yl)oxy)phenyl)-2,4-dihydro-3H-1,2,4-triazol-3-one], the IC50 is less than 100 nM. As to `CCOC(=O)c1ocnc1Oc1ccc(-n2ncn(Cc3c(F)cccc3F)c2=O)cc1F` [Example 534, ethyl 4-(4-(4-(2,6-difluorobenzyl)-5-oxo-4,5-dihydro-1H-1,2,4-triazol-1-yl)-2-fluorophenoxy)oxazole-5-carboxylate], the IC50 is less than 100 nM.

As to `CC(C)(O)C#Cc1cc(Oc2ccc(-n3ncn(Cc4c(F)cccc4F)c3=O)cc2)ccn1` [Example 535, 4-(2,6-difluorobenzyl)-2-(4-((2-(3-hydroxy-3-methylbut-1-yn-1-yl)pyridin-4-yl)oxy)phenyl)-2,4-dihydro-3H-1,2,4-triazol-3-one], the IC50 was 100 to 1000 nM. Next, `O=c1n(Cc2c(F)cccc2F)cnn1-c1ccc(C2=CCOCC2)cc1` [Example 536, 4-(2,6-difluorobenzyl)-2-(4-(3,6-dihydro-2H-pyran-4-yl)phenyl)-2,4-dihydro-3H-1,2,4-triazol-3-one]: 1000 to 10000 nM. As for `Cc1cc(N2CC(C)(N)C2)nn1Cc1ccc(-n2ncn(Cc3c(F)cccc3F)c2=O)cc1` [Example 537, 2-(4-((3-(3-amino-3-methylazetidin-1-yl)-5-methyl-1H-pyrazol-1-yl)methyl)phenyl)-4-(2,6-difluorobenzyl)-2,4-dihydro-3H-1,2,4-triazol-3-one], the IC50 is 1000 to 10000 nM.

For `Cc1c(N2CC(C)(NC(=O)OC(C)(C)C)C2)ncn1Cc1ccc(-n2ncn(Cc3c(F)cccc3F)c2=O)cc1` [Example 538, tert-butyl (1-(1-(4-(4-(2,6-difluorobenzyl)-5-oxo-4,5-dihydro-1H-1,2,4-triazol-1-yl)benzyl)-5-methyl-1H-imidazol-4-yl)-3-methylazetidin-3-yl)carbamate], the IC50 was less than 100 nM. `Cc1c(I)ncn1Cc1ccc(-n2ncn(Cc3c(F)cccc3F)c2=O)cc1` [Example 539, 4-(2,6-difluorobenzyl)-2-(4-((4-iodo-5-methyl-1H-imidazol-1-yl)methyl)phenyl)-2,4-dihydro-3H-1,2,4-triazol-3-one]: the IC50 is less than 100 nM. Take `Cc1ncn(Cc2ccc(-n3ncn(Cc4c(F)cccc4F)c3=O)cc2)c1I` [Example 540, 4-(2,6-difluorobenzyl)-2-(4-((5-iodo-4-methyl-1H-imidazol-1-yl)methyl)phenyl)-2,4-dihydro-3H-1,2,4-triazol-3-one]: the IC50 is less than 100 nM. Turning to `Cc1cc(N2CC(C)(C#N)C2)nn1Cc1ccc(-n2ncn(Cc3c(F)cccc3F)c2=O)cc1` [Example 541, 1-(1-(4-(4-(2,6-difluorobenzyl)-5-oxo-4,5-dihydro-1H-1,2,4-triazol-1-yl)benzyl)-5-methyl-1H-pyrazol-3-yl)-3-methylazetidine-3-carbonitrile], the IC50 was less than 100 nM. Consider `Cc1nc(C2=CCNC2)sc1Oc1ccc(-n2ncn(Cc3c(F)cccc3F)c2=O)cc1` [Example 542, 4-(2,6-difluorobenzyl)-2-(4-((2-(2,5-dihydro-1H-pyrrol-3-yl)-4-methylthiazol-5-yl)oxy)phenyl)-2,4-dihydro-3H-1,2,4-triazol-3-one], for which the IC50 was less than 100 nM.

Take `Cc1nc(-c2ccnn2C)sc1Oc1ccc(-n2ncn(Cc3c(F)cccc3F)c2=O)cc1` [Example 544, 4-(2,6-difluorobenzyl)-2-(4-((4-methyl-2-(1-methyl-1H-pyrazol-5-yl)thiazol-5-yl)oxy)phenyl)-2,4-dihydro-3H-1,2,4-triazol-3-one]: the IC50 is less than 100 nM.
